This is an account of results in patent publication US20220009894A1, “1,2,3,4-TETRAHYDROQUINOXALINE DERIVATIVE, PREPARATION METHOD THEREFOR AND APPLICATION THEREOF” (Abbisko Therapeutics Co., Ltd., priority 2019, published 2022).

For one assay, the target named is T1, RORγt-LBD (Homo sapiens, UniProt P51449).
T1 sequence (P51449 269-508 limits assumed): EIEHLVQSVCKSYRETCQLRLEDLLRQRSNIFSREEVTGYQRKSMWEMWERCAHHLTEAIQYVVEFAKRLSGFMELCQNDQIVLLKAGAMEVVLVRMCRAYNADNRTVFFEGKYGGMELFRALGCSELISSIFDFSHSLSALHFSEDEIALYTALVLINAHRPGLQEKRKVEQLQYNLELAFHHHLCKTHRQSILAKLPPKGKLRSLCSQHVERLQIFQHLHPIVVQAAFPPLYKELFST
Briefly: Time-resolved fluorescence resonance energy-transfer assay (TR-FRET), co-activator peptide recruitment. The assay is classed as biochemical. Also on record: TR-FRET Biochemical Amax: unit not given here. Conditions: for EC50: His-RORγt-LBD 30 nM, SRC peptide 500 nM, agonistic activity, averages of one or more measurements, read-out: TR-FRET Biochemical EC50/; for TR-FRET Biochemical Amax: upper activation limit, His-RORγt-LBD, SRC peptide. Summed up:
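This agonist-mode TR-FRET used 30 nM His-tagged RORγt-LBD, 500 nM biotinylated SRC peptide, 0.25 nM Eu-anti-His and 5 nM APC-streptavidin in pH 7.0 Tris/KCl buffer with DTT and Triton. A 7-concentration, 5-fold compound series was incubated at 4 °C overnight plus 1 h at room temperature, and the 665/615 nm signal was read.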
In general terms: In TR-FRET formats the signal depends on donor and acceptor labels being close together.

For the next assay, the target named is T2, RORγt (Homo sapiens, UniProt P51449).
T2 construct: The plasmid of pFN26A-RORγt-LBD and pG14.35 (Promega, Cat. No. E1370) were co-transfected into HEK 293 cells; expressed in transfected cells; host or cells: HEK 293 cells (Cat. No. GNHu18)
T2 sequence (P51449 269-508 limits assumed): T1 sequence (P51449 269-508 limits assumed)
As to the kind of experiment: RORγt cellular reporter gene detection assay.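 For Cellular Reporter Assay Amax: Ursolic Acid added as 5 µL of 20 µM medium per well.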 The assay is classed as cell-based. The note with it: 24 hrs; for EC50: HEK 293 cells co-transfected with pFN26A-RORγt-LBD and pG14.35, in presence of antagonist Ursolic acid, top concentration 50 μM; for Cellular Reporter Assay Amax: upper activation limit, HEK 293 cells, in presence of antagonist Ursolic acid. In a few lines:
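Compounds, titrated 4-fold from a 50 μM top concentration, were added with Ursolic acid to HEK293 cells carrying a RORγt-LBD plasmid and a reporter plasmid. After 24 h at 37° C, dual firefly/Renilla luciferase readout; four-parameter curves gave EC50 and maximal activation (Amax).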
A general note: A reporter such as luciferase makes a cellular process visible.

For the compound `CC(C)(C)OC(=O)C(C)(C)N1CCN2c3ccc(-c4cc(F)cc(OC(F)F)c4)cc3N(S(=O)(=O)c3cccc(C(F)(F)F)c3)C[C@@H]2C1` [Example 51, tert-butyl (S)-2-(8-(3-(difluoromethoxy)-5-fluorophenyl)-6-((3-(trifluoromethyl)phenyl)sulfonyl)-1,2,4,4a,5,6-hexahydro-3H-pyrazino[1,2-a]quinoxalin-3-yl)-2-methylpropanoate], at RORγt-LBD, the EC50 was found to be 48.7 nM and the “TR-FRET Biochemical Amax” value came out at 0.77. Besides, on RORγt, the EC50 was determined as 3940 nM and the “Cellular Reporter Assay Amax” value worked out at 1.5.
Take `C/C(=C\c1ccc2c(c1)N(S(=O)(=O)c1cccc(C(F)(F)F)c1)C[C@@H]1CN(C(C)(CO)CO)CCN21)c1c(F)cccc1Cl` [Example 71, (S,E)-2-(8-(2-(2-chloro-6-fluorophenyl)prop-1-en-1-yl)-6-((3-(trifluoromethyl)phenyl)sulfonyl)-1,2,4,4a,5,6-hexahydro-3H-pyrazino[1,2-a]quinoxalin-3-yl)-2-methylpropane-1,3-diol]: on RORγt-LBD, the EC50 amounted to 40.5 nM and the “TR-FRET Biochemical Amax” value is 0.97. At RORγt, the EC50 stood at 498 nM and the “Cellular Reporter Assay Amax” value stood at 3.5.
As to `COC(=O)CN1CCN2c3ccc(/C=C/c4c(Cl)cccc4C(F)(F)F)cc3N(S(=O)(=O)c3cccc(OC(F)(F)F)c3)C[C@@H]2C1` [Example 85, methyl (S,E)-2-(8-(2-chloro-6-(trifluoromethyl)styryl)-6-((3-(trifluoromethoxy)phenyl)sulfonyl)-1,2,4,4a,5,6-hexahydro-3H-pyrazino[1,2-a]quinoxalin-3-yl) acetate], at RORγt-LBD, the EC50 stood at 75.4 nM and the “TR-FRET Biochemical Amax” value stood at 1.01. Also, at RORγt, the EC50 came to 279 nM and the “Cellular Reporter Assay Amax” value was determined as 1.8.
For `CC1(C)C=C(c2ccc3c(c2)N(S(=O)(=O)c2cc(C(F)(F)F)cnc2OCCO)C[C@@H]2CNCCN32)CC(C)(C)O1` [Example 88, (S)-2-((3-((8-(2,2,6,6-tetramethyl-3,6-dihydro-2H-pyran-4-yl)-1,2,3,4,4a,5-hexa hydro-6H-pyrazino[1,2-a]quinoxalin-6-yl)sulfonyl)-5-(trifluoromethyl)pyridin-2-yl)oxy)ethan-1-ol], the EC50 at RORγt-LBD is 191 nM; on RORγt, not below 50000 nM. At RORγt-LBD, the “TR-FRET Biochemical Amax” value came to 0.72.
In the case of `CC1(C)C=C(c2ccc3c(c2)N(S(=O)(=O)c2cccc(C(F)(F)F)c2)C[C@@H]2CN(CC(=O)O)CCN32)CC(C)(C)O1` [Example 22, (S)-2-(8-(2,2,6,6-tetramethyl-3,6-dihydro-2H-pyran-4-yl)-6-((3-(trifluoromethyl)phenyl)sulfonyl)-1,2,4,4a,5,6-hexa-hydro-3H-pyrazino[1,2-a]quinoxalin-3-yl)acetic acid], at RORγt-LBD, the EC50 was 1.51 nM and the “TR-FRET Biochemical Amax” value worked out at 0.62. In addition, on RORγt, the EC50 amounted to 245 nM and the “Cellular Reporter Assay Amax” value stood at 3.3.
With `CCOC(=O)CN1CCN2c3ccc(/C=C/c4c(Cl)cccc4C(F)(F)F)cc3N(S(=O)(=O)c3cccc(C(F)(F)F)c3)C[C@@H]2C1` [Example 46, ethyl (S,E)-2-(8-(2-chloro-6-(trifluoromethyl)styryl)-6-((3-(trifluoromethyl)phenyl)sulfonyl)-1,2,4,4a,5,6-hexahydro-3H-pyrazino [1,2-a]quinoxalin-3-yl)acetate], at RORγt-LBD, the EC50 stood at 5.29 nM and the “TR-FRET Biochemical Amax” value is recorded as 0.72. Also, on RORγt, the EC50 is 924 nM and the “Cellular Reporter Assay Amax” value is given as 4.0.
